From patent publication US9994547B2, “Heteroarylamide inhibitors of TBK1” (Takeda Pharmaceutical Company Limited, priority 2014, dated 2018)

Target: Full length human TBK1 (Homo sapiens (Human), UniProt Q9UHD2)
Experiment: Inhibition of TBK1 Enzyme (Example A)
Type: biochemical
Settings: -log(IC50), IC50 molar; 3 nM TBK1, 25 μM ATP, 60 min RT
Procedure: Full length human TBK1 with an N-terminal His-tag was cloned into the pFastBacl vector and was transfected into Sf9 cells. 72 hours later the virus was harvested and amplified through two additional rounds of infections. Then 400 mL of the resulting virus stock was used to infect 10 L of Sf9 cells at a density of 2×10^6 cells/mL. Cell pellets were harvested 48 hours post infection and were lysed by freeze-thaw, homogenization and sonication in binding buffer (25 mM Tris pH7.6, 1 M NaCl, 10 mM imidazole, 0.5 mM TCEP) plus 0.1% Triton X-100 and complete protease inhibitor cocktail. The lysate was spun and the supernatant was purified with a HisTrap FF crude and a Superdex 200 pg column.
TBK1 inhibition is determined using a 384 well plate format in buffer containing 20 mM Hepes, pH 7.4, 10 mM MgCl2, 1 mM EDTA, 0.01% Brij-L23, 1 mM DTT. Each test compound is prepared in DMSO using 2.5-fold serial dilutions for 11 data points, which are added to the buffer so that each dilution contains 1% DMSO. To each well is added 2 μL of 1 μM 5FAM-DRHDSGLDSMKDE-NH2 (in buffer), 2 μL of diluted test compound (1% DMSO in buffer), and 5 μL of 3 nM TBK1 and 25 μM ATP (in buffer). The reaction mixture is incubated at RT for 60 min, and quenched by adding 20 mM Hepes, pH 7.4, 10 mM MgCl2, 1 mM EDTA, 0.01% Brij-L23, 1 mM DTT+25 mM EDTA. To quantify the fluorescent-labeled substrate and product following reaction, the test plate is loaded on a Caliper LC-3000, which measures percent of conversion by microfluidic-based separation. Corresponding IC50 values are calculated by non-linear curve fitting of the compound concentrations and percent of inhibition to the standard IC50 equation and reported as pIC50, i.e., −log(IC50), where IC50 is the molar concentration.

Full length human TBK1, sequence (Q9UHD2 whole entry): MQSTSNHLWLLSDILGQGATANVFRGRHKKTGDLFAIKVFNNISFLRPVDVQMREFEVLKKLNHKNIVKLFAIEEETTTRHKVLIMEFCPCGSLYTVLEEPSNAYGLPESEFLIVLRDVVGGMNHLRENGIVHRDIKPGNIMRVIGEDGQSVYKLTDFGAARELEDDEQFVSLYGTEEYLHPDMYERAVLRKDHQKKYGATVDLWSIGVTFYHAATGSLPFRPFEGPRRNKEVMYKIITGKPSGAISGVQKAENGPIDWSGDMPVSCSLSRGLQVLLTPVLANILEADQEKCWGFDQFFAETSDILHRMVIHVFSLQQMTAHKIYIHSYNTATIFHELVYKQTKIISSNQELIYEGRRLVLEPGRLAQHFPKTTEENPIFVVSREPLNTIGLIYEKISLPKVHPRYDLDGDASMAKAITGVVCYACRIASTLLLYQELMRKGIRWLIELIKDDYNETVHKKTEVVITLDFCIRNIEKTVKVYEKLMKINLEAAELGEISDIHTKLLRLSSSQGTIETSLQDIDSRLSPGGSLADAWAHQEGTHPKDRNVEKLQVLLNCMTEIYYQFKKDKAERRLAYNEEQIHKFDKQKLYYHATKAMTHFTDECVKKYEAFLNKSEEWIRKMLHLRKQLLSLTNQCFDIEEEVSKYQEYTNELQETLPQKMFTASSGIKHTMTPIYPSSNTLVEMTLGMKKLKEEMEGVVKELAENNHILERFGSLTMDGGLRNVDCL

Structure (SMILES)	TBK1 Inhibition (pIC50)
CC[C@@H](Nc1cc(-c2cnc(NC(=O)C3CC3)cn2)cnc1C#N)C(=O)N(C)C [Example 31, (R)-N-(5-(6-cyano-5-((1-(dimethylamino)-1-oxobutan-2-yl)amino)pyridin-3-yl)pyrazin-2-yl)cyclopropanecarboxamide]	6.3
C[C@@H](O)[C@H](Nc1cc(-c2cnc(NC(=O)C3CC3)cn2)cnc1C#N)C(=O)N(C)C [Example 32, N-(5-(6-cyano-5-(((2S,3R)-1-(dimethylamino)-3-hydroxy-1-oxobutan-2-yl)amino)pyridin-3-yl)pyrazin-2-yl)cyclopropanecarboxamide]	6.8
CN(C)C(=O)[C@@H](CC(F)F)Nc1cc(-c2cnc(NC(=O)C3CC3)cn2)ccc1C#N [Example 33, (R)-N-(5-(4-cyano-3-((1-(dimethylamino)-4,4-difluoro-1-oxobutan-2-yl)amino)phenyl)pyrazin-2-yl)cyclopropanecarboxamide]	5.9
CN(C)C(=O)[C@H](CC(F)F)Nc1cc(-c2cnc(NC(=O)C3CC3)cn2)ccc1C#N [Example 34, (S)-N-(5-(4-cyano-3-((1-(dimethylamino)-4,4-difluoro-1-oxobutan-2-yl)amino)phenyl)pyrazin-2-yl)cyclopropanecarboxamide]	8.2
CCC(Nc1cc(-c2cnc(NC(=O)C3CC3)cn2)cnc1C#N)C(=O)N(C)CCO (stereo not drawn) [Example 35, N-(5-(6-cyano-5-((1-((2-hydroxyethyl)(methyl)amino)-1-oxobutan-2-yl)amino)pyridin-3-yl)pyrazin-2-yl)cyclopropanecarboxamide]	6.9
CCC(Nc1cc(-c2cnc(NC(=O)C3CC3)cn2)cnc1C#N)C(=O)N(C)C1CC1 (stereo not drawn) [Example 36, N-(5-(6-cyano-5-((1-(cyclopropyl(methyl)amino)-1-oxobutan-2-yl)amino)pyridin-3-yl)pyrazin-2-yl)cyclopropanecarboxamide]	7.3
C[C@@H](O)[C@@H](Nc1cc(-c2cnc(NC(=O)C3CC3)cn2)cnc1C#N)C(=O)N(C)C [Example 37, N-(5-(6-cyano-5-(((2R,3R)-1-(dimethylamino)-3-hydroxy-1-oxobutan-2-yl)amino)pyridin-3-yl)pyrazin-2-yl)cyclopropanecarboxamide]	6.9
C[C@H](O)[C@@H](Nc1cc(-c2cnc(NC(=O)C3CC3)cn2)cnc1C#N)C(=O)N(C)C [Example 38, N-(5-(6-cyano-5-(((2R,3S)-1-(dimethylamino)-3-hydroxy-1-oxobutan-2-yl)amino)pyridin-3-yl)pyrazin-2-yl)cyclopropanecarboxamide]	5.8
C[C@H](O)[C@H](Nc1cc(-c2cnc(NC(=O)C3CC3)cn2)cnc1C#N)C(=O)N(C)C [Example 39, N-(5-(6-cyano-5-(((2S,3S)-1-(dimethylamino)-3-hydroxy-1-oxobutan-2-yl)amino)pyridin-3-yl)pyrazin-2-yl)cyclopropanecarboxamide]	7.0
CN(CC(F)(F)F)C(=O)CNc1cc(-c2cnc(NC(=O)C3CC3)cn2)cnc1C#N [Example 40, N-(5-(6-cyano-5-((2-(methyl(2,2,2-trifluoroethyl)amino)-2-oxoethyl)amino)pyridin-3-yl)pyrazin-2-yl)cyclopropanecarboxamide]	7.5
CC(Nc1cc(-c2cnc(NC(=O)C3CC3)cn2)cnc1C#N)C(=O)N(C)CC(F)(F)F (stereo not drawn) [Example 41, N-(5-(6-cyano-5-((1-(methyl(2,2,2-trifluoroethyl)amino)-1-oxopropan-2-yl)amino)pyridin-3-yl)pyrazin-2-yl)cyclopropanecarboxamide]	7.8
COCC(Nc1cc(-c2cnc(NC(=O)C3CC3)cn2)cnc1C#N)C(=O)N(C)C (stereo not drawn) [Example 42, N-(5-(6-cyano-5-((1-(dimethylamino)-3-methoxy-1-oxopropan-2-yl)amino)pyridin-3-yl)pyrazin-2-yl)cyclopropanecarboxamide]	6.8
CC(Nc1cc(-c2cnc(NC(=O)C3CC3)cn2)cnc1C#N)C(=O)N(C)CC#N (stereo not drawn) [Example 43, N-(5-(6-cyano-5-((1-((cyanomethyl)(methyl)amino)-1-oxopropan-2-yl)amino)pyridin-3-yl)pyrazin-2-yl)cyclopropanecarboxamide]	7.7
CN(C)C(=O)C(CC#N)Nc1cc(-c2cnc(NC(=O)C3CC3)cn2)cnc1C#N (stereo not drawn) [Example 44, N-(5-(6-cyano-5-((3-cyano-1-(dimethylamino)-1-oxopropan-2-yl)amino)pyridin-3-yl)pyrazin-2-yl)cyclopropanecarboxamide]	6.2
N#Cc1ncc(-c2cnc(NC(=O)C3CC3)cn2)cc1NCC(=O)N1CCC[C@@H]1C#N [Example 45, (R)-N-(5-(6-cyano-5-((2-(2-cyanopyrrolidin-1-yl)-2-oxoethyl)amino)pyridin-3-yl)pyrazin-2-yl)cyclopropanecarboxamide]	7.5
CC(Nc1cc(-c2cnc(NC(=O)C3CC3)cn2)cnc1C#N)C(=O)N(C)CC(F)F (stereo not drawn) [Example 46, N-(5-(6-cyano-5-((1-((2,2-difluoroethyl)(methyl)amino)-1-oxopropan-2-yl)amino)pyridin-3-yl)pyrazin-2-yl)cyclopropanecarboxamide]	8.0
CC(Nc1cc(-c2cnc(NC(=O)C3CC3)cn2)cnc1C#N)C(=O)N(C)CCF (stereo not drawn) [Example 47, N-(5-(6-cyano-5-((1-((2-fluoroethyl)(methyl)amino)-1-oxopropan-2-yl)amino)pyridin-3-yl)pyrazin-2-yl)cyclopropanecarboxamide]	7.7
N#Cc1ncc(-c2cnc(NC(=O)C3CC3)cn2)cc1NCC(=O)N1CCC[C@@H]1C(F)(F)F [Example 48, (R)-N-(5-(6-cyano-5-((2-oxo-2-(2-(trifluoromethyl)pyrrolidin-1-yl)ethyl)amino)pyridin-3-yl)pyrazin-2-yl)cyclopropanecarboxamide]	8.2
CN(CC#N)C(=O)CNc1cc(-c2cnc(NC(=O)C3CC3)cn2)cnc1C#N [Example 49, N-(5-(6-cyano-5-((2-((cyanomethyl)(methyl)amino)-2-oxoethyl)amino)pyridin-3-yl)pyrazin-2-yl)cyclopropanecarboxamide]	7.2
C[C@H](Nc1cc(-c2cnc(NC(=O)C3CC3)cn2)cnc1C#N)C(=O)N(C)CC#N [Example 50, (S)-N-(5-(6-cyano-5-((1-((cyanomethyl)(methyl)amino)-1-oxopropan-2-yl)amino)pyridin-3-yl)pyrazin-2-yl)cyclopropanecarboxamide]	7.9
CC[C@H](Nc1cc(-c2cnc(NC(=O)C3CC3)cn2)cnc1C#N)C(=O)N(C)CC#N [Example 51, (S)-N-(5-(6-cyano-5-((1-((cyanomethyl)(methyl)amino)-1-oxobutan-2-yl)amino)pyridin-3-yl)pyrazin-2-yl)cyclopropanecarboxamide]	7.4
COCC[C@H](Nc1cc(-c2cnc(NC(=O)C3CC3)cn2)cnc1C#N)C(=O)N(C)CCO [Example 52, (S)-N-(5-(6-cyano-5-((1-((2-hydroxyethyl)(methyl)amino)-4-methoxy-1-oxobutan-2-yl)amino)pyridin-3-yl)pyrazin-2-yl)cyclopropanecarboxamide]	6.5
C[C@H](Nc1cc(-c2cnc(NC(=O)C3CC3)cn2)cnc1C#N)C(=O)N(C)CC(F)F [Example 53, (S)-N-(5-(6-cyano-5-((1-((2,2-difluoroethyl)(methyl)amino)-1-oxopropan-2-yl)amino)pyridin-3-yl)pyrazin-2-yl)cyclopropanecarboxamide]	8.6
C[C@H](Nc1cc(-c2cnc(NC(=O)C3CC3)cn2)cnc1C#N)C(=O)N(C)CCF [Example 54, (S)-N-(5-(6-cyano-5-((1-((2-fluoroethyl)(methyl)amino)-1-oxopropan-2-yl)amino)pyridin-3-yl)pyrazin-2-yl)cyclopropanecarboxamide]	8.0
C[C@H](Nc1cc(-c2cnc(NC(=O)C3CC3)cn2)cnc1C#N)C(=O)N1CCC[C@@H]1C#N [Example 55, N-(5-(6-cyano-5-(((S)-1-((R)-2-cyanopyrrolidin-1-yl)-1-oxopropan-2-yl)amino)pyridin-3-yl)pyrazin-2-yl)cyclopropanecarboxamide]	7.6
CC[C@H](Nc1cc(-c2cnc(NC(=O)C3CC3)cn2)cnc1C#N)C(=O)N(C)CCF [Example 56, (S)-N-(5-(6-cyano-5-((1-((2-fluoroethyl)(methyl)amino)-1-oxobutan-2-yl)amino)pyridin-3-yl)pyrazin-2-yl)cyclopropanecarboxamide]	7.7
CN(C)C(=O)[C@H](CO)Nc1cc(-c2cnc(NC(=O)C3CC3)cn2)cnc1C#N [Example 57, (S)-N-(5-(6-cyano-5-((1-(dimethylamino)-3-hydroxy-1-oxopropan-2-yl)amino)pyridin-3-yl)pyrazin-2-yl)cyclopropanecarboxamide]	7.2
